Experimental findings from PubChem BioAssay (NCI) are described below.

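Test compounds were applied to cells in 96-well plates for 48 hours at 5 doses. The concentration for 50% growth inhibition is given as GI50. TGI is the concentration that stops growth completely.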

Some test systems named below: EKVX NSCLC; K-562 leukemia; HOP-62 NSCLC; NCI-H23 lung; OVCAR-8 ovarian; MALME-3M melanoma; SNB-75 CNS; SK-OV-3 ovarian; OVCAR-4 ovarian; M14 melanoma.
What all share (assay): growth of human tumour cells (NCI), 48 h

`CC12CCC(CC1)C(C)(C)O2`: the TGI came out at 104 µM with EKVX NSCLC; 183 µM with K-562 leukemia; 52.2 µM with HOP-62 NSCLC; 121 µM in the assay with NCI-H23 lung; 133 µM in the assay with OVCAR-8 ovarian; 122 µM in the assay with MALME-3M melanoma. The TGI in the assay on SNB-75 CNS was 115 µM; with SK-OV-3 ovarian, 223 µM; in the assay on OVCAR-4 ovarian it was 129 µM. The GI50 in the assay on K-562 leukemia is 37.9 µM.

`COc1ccc(-c2c(-c3ccccc3)c(C)nc3nc(SC)nc(SC)c23)cc1OC`: the TGI in the assay with EKVX NSCLC is above 100 µM; in the assay with K-562 leukemia, 32 µM; in the assay on HOP-62 NSCLC, 40.5 µM; with NCI-H23 lung it was above 100 µM; in the assay on MALME-3M melanoma, 38.5 µM; in the assay with SNB-75 CNS, above 100 µM. The TGI in the assay with M14 melanoma and with SK-OV-3 ovarian was above 100 µM in each case.

For the compound `O=C(O)/C=C/c1c[nH]c(=O)[nH]c1=O`, the TGI in the assay with EKVX NSCLC is above 500 µM; with K-562 leukemia, above 500 µM; in the assay on HOP-62 NSCLC, above 250 µM; in the assay on NCI-H23 lung, above 500 µM; with OVCAR-8 ovarian it was above 500 µM; in the assay on MALME-3M melanoma it was above 500 µM. Also, the TGI with SNB-75 CNS, in the assay on SK-OV-3 ovarian and in the assay with OVCAR-4 ovarian was above 500 µM throughout. In addition, the GI50 in the assay on HOP-62 NSCLC is above 250 µM; with OVCAR-4 ovarian, above 500 µM.

As to `C=C1C(=O)OC2CC(C)C3C4OC4C(O)C3(C)C(O)C12` (configuration not stated), the TGI was determined as 63.9 µM with EKVX NSCLC; 91.6 µM in the assay with K-562 leukemia; 127 µM with HOP-62 NSCLC; 55.5 µM in the assay on NCI-H23 lung; 91.6 µM in the assay on OVCAR-8 ovarian; 67.1 µM in the assay on MALME-3M melanoma. The TGI in the assay on SNB-75 CNS is 92.1 µM; with SK-OV-3 ovarian, 98.8 µM; in the assay with OVCAR-4 ovarian it was 59.7 µM.

Take `C=C=CC(NC(=O)c1ccccc1)(C(=O)O)C(F)(F)F` (configuration not stated): the TGI in the assay on EKVX NSCLC, in the assay with K-562 leukemia, in the assay on NCI-H23 lung, in the assay on OVCAR-8 ovarian, in the assay with MALME-3M melanoma and in the assay on SNB-75 CNS was above 100 µM in each case. The compound also returned a TGI in the assay on M14 melanoma above 100 µM.

As for `O=C1/C(=C/c2ccc(O)cc2)COc2ccc(O)c(O)c21`, the GI50 in the assay with EKVX NSCLC was 2.91 µM; in the assay on K-562 leukemia, 0.649 µM; in the assay on HOP-62 NSCLC, 3.98 µM; with NCI-H23 lung, 3.97 µM; in the assay with OVCAR-8 ovarian it was 3.51 µM; in the assay with MALME-3M melanoma, 1.76 µM. For the same compound, the GI50 was 1.78 µM in the assay with SNB-75 CNS, 3.43 µM with M14 melanoma and 2.85 µM in the assay on OVCAR-4 ovarian. Moreover, the TGI with EKVX NSCLC was above 100 µM; in the assay with K-562 leukemia, above 100 µM; in the assay on HOP-62 NSCLC, above 100 µM; in the assay on NCI-H23 lung, 34.7 µM; in the assay with OVCAR-8 ovarian, above 100 µM; in the assay with MALME-3M melanoma it was 4.58 µM. Further, the TGI was above 100 µM in the assay on SNB-75 CNS, 20.1 µM in the assay with M14 melanoma and 65.9 µM with OVCAR-4 ovarian.

As to `CCCCOP(C)(=O)C(NC(=O)OCC)(C(F)(F)F)C(F)(F)F` (configuration not stated), the TGI with EKVX NSCLC, in the assay on K-562 leukemia, in the assay on HOP-62 NSCLC, in the assay on NCI-H23 lung, in the assay on OVCAR-8 ovarian and in the assay with MALME-3M melanoma was above 100 µM in each case. The TGI with SNB-75 CNS, in the assay on M14 melanoma, in the assay on SK-OV-3 ovarian and with OVCAR-4 ovarian was above 100 µM each time.

For `Cc1cccc(N2C(=O)C3c4[nH]c5ccc(C)cc5c4C4CCC(C(C)(C)C)CC4C3C2=O)c1` (configuration not stated), the TGI in the assay on EKVX NSCLC is 85.6 µM; with K-562 leukemia it was above 100 µM; in the assay with HOP-62 NSCLC it was 30.9 µM; in the assay with NCI-H23 lung it was above 100 µM; in the assay with OVCAR-8 ovarian, 47.7 µM; in the assay with MALME-3M melanoma, 71.2 µM. Also, the TGI in the assay with M14 melanoma and in the assay on OVCAR-4 ovarian was above 100 µM each time.

Consider `CCCCCCCCCCCCCC[n+]1ccc(C)cc1`, for which the GI50 was 0.296 µM in the assay on EKVX NSCLC; 0.309 µM in the assay on K-562 leukemia; 1.27 µM in the assay on HOP-62 NSCLC; 0.504 µM in the assay with NCI-H23 lung; 0.806 µM in the assay with SNB-75 CNS; 0.345 µM in the assay on M14 melanoma. For the same compound, the GI50 was 1.8 µM with SK-OV-3 ovarian and 0.523 µM in the assay with OVCAR-4 ovarian. The TGI was found to be 1.42 µM in the assay with EKVX NSCLC; 3.73 µM with K-562 leukemia; 2.61 µM in the assay with HOP-62 NSCLC; 2.51 µM in the assay with NCI-H23 lung; 2.37 µM in the assay on SNB-75 CNS; 1.25 µM in the assay with M14 melanoma. For the same compound, the TGI in the assay with SK-OV-3 ovarian worked out at 5.56 µM; in the assay on OVCAR-4 ovarian, 2.71 µM.
